Test results published in patent publication EP4385979A1 (Grünenthal GmbH, priority 2022, dated 2024).

Target: T1, human NaV1.8 (Homo sapiens, UniProt Q9Y5Y9)
T1 construct: expressed in transfected cells; host or cells: HEK
Experiment: Electrophysiology: voltage-clamp recordings, whole-cell patch clamp on Qube384 automated platform
Type: cell-based
Details: HEK-NaV1.8 (NM 006514.1) with b3 recombinant cell line, multi hole plates, ambient room temperature, read-out: Potency category (human NaV1.8 IC50)
Experimental: Electrophysiology: Voltage-Clamp recordings
The following NaV1.8 recombinant cell line was used for recordings: HEK-NaV1.8 (NM 006514.1) with b3 (NM_018400.3).
Sodium currents were measured using the patch clamp technique in the whole-cell configuration using the Qube384 (Sophion A/S, Copenhagen, Denmark) automated voltage clamp platform. "Multi hole" plates were used for the cell line expressing NaV1.8 while "single hole" plates were used for the recombinant cell lines expressing the other subtypes. Appropriate filters (for minimum seal resistance and minimum current size) and series resistance compensation (for high quality sodium channel recordings) were applied. Data was collected at ambient room temperature.
The recording […] solution contained (in mM): NaCl 145 mM, KCl 4 mM, CaCl2 2 mM, MgCl2 1 mM, HEPES 10 mM, Glucose 10 mM, pH 7.4 (NaOH). The […] recording solution contained (in mM): CsF 120 mM, CsCl 20 mM, NaCl 10 mM, EGTA 10 mM, HEPES 10 mM, pH 7.2 (CsOH). Currents were recorded at 25 kHz sampling frequency and filtered at 5 kHz. Series resistance compensation was applied at 65%.
Vehicle (VEH) is the control condition where cells are exposed to 0.3 % DMSO without compound. All runs include VEH controls being exposed to the same voltage protocols to assess non-compound related phenomena such as run down and then used to isolate compound dependent effects on currents.
To check for state-dependence inhibition, the following voltage-sequence was applied every 20 seconds: From a resting membrane potential of-120 mV, the first test pulse (P1; 20 ms to -10 mV) was applied to check for channels in the Resting State followed by a brief recovery (20 ms to -120 mV), then holding the membrane voltage to V1/2 (4 seconds at voltage to obtain half the channel at Rest and half Inactivated) with a subsequent second test pulse (P2; 20 ms to -10 mV) to check for channels in the Inactivated State, followed by another brief recovery (20 ms to -120 mV) and a final third test pulse (P3; 20 ms to -10 mV) to check for recovered channels.
To check for frequency-dependent inhibition, a 10 Hz protocol and a 20 Hz protocol were applied; namely,
From a resting membrane potential of -120 mV, 40-pulses (10 ms to -10 mV) was applied at 10 Hz (at 100 ms between pulses) and then at 20 Hz (at 50 ms between pulses). Each parameter was recorded (P1, P2, P3, P40 from 10Hz and P40 from 20Hz) during a control period (lasting ~ 5 minutes) when establishing the baseline and during compound period (lasting ~ 12 minutes) when test compound (or vehicle) was applied. For each parameter, the value at the end of the compound period was normalized to the vehicle baseline; as follows Normalized Inhibition (NormCPD) = (CPD Valueend CPD period)/(VEH Valueend Control Period) [formula]
To adjust for any variance in the Na^+ current signal during the compound period (owing to cumulative inactivation independent of compound or shifts in biophysics over time), a dedicated segment of the recording wells in each 384 plate were dedicated to having only vehicle exposure. These vehicle-only recordings were used to correct for any apparent "run-up" or "run-down" in the experiment. Normalized Inhibition (NormVEH) = (VEH Valueend CPD period)/(VEH Valueend Control Period) [formula]
The adjusted inhibition was calculated as follows: % Inhibitioncorrected = 100 × (NormCPD −NormVEH)/(100−NormVEH) [formula]
Percent inhibition was determined and IC50 values were calculated using a 4 parameter logistic model within XLFit Software (IDBS, Boston MA): % Inhibitioncorrected = A + ((B−A))/((1 + (((x)/(C)))^D) [formula] where A and B are the maximal and minimum inhibition respectively, C is the IC50 concentration and D is the (Hill) slope.

T1 sequence (Q9Y5Y9 whole entry): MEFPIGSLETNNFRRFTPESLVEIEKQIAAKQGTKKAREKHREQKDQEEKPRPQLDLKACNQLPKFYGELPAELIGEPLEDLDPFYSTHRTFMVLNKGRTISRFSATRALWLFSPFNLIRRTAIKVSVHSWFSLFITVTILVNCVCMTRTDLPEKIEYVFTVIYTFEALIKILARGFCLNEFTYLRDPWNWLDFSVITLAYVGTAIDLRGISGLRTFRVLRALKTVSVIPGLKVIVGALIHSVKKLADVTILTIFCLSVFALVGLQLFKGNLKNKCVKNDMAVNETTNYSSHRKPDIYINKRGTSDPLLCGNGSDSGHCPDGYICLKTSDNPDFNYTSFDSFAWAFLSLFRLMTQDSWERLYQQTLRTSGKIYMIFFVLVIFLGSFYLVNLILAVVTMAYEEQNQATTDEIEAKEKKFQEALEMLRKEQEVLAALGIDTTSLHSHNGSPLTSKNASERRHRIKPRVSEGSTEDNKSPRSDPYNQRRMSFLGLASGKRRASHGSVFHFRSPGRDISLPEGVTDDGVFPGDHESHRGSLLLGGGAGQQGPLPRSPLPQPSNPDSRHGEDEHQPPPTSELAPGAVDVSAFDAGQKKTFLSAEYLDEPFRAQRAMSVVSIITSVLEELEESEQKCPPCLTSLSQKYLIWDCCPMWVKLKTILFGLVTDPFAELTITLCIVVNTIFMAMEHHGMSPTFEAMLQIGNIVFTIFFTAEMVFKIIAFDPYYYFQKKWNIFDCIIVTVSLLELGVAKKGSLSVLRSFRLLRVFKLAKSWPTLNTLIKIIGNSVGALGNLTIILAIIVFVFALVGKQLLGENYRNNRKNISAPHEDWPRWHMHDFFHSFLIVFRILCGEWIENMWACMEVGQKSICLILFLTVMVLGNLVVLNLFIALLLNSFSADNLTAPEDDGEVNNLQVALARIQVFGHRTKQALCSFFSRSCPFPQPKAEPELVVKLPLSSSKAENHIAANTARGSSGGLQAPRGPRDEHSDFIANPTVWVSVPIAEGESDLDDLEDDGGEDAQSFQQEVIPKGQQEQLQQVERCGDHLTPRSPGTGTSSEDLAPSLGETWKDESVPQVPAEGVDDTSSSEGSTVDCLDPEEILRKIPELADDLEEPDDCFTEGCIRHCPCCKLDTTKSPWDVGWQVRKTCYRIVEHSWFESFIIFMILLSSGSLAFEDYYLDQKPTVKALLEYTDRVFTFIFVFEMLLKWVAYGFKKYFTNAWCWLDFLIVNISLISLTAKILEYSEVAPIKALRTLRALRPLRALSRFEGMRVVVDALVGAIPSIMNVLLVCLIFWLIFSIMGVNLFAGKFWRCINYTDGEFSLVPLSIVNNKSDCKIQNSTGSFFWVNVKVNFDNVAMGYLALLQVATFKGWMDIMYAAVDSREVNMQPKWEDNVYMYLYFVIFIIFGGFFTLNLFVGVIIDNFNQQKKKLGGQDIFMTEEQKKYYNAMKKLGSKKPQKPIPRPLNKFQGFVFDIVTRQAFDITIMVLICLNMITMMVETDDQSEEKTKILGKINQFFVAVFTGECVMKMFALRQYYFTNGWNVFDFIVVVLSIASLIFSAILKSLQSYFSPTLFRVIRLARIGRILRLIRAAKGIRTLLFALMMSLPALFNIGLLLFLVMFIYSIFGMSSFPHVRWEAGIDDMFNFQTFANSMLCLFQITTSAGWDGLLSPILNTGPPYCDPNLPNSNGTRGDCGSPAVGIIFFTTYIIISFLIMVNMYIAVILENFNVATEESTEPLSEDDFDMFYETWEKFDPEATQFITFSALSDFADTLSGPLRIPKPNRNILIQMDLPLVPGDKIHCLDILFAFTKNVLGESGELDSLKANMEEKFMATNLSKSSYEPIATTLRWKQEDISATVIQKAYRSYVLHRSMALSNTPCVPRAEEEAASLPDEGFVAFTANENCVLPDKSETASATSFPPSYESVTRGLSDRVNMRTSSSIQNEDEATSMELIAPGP

SMILES | IC50
CC12CC(Cn3nc(C4CC4)c(C(F)(F)F)c3C(=O)Nc3ccnc(S(C)(=O)=O)c3)(CO1)C2 [Example 23, 3-cyclopropyl-1-((1-methyl-2-oxabicyclo[2.1.1]hexan-4-yl)methyl)-N-(2-(methylsulfonyl)pyridin-4-yl)-4-(trifluoromethyl)-1H-pyrazole-5-carboxamide] | 100 to 1000 nM
Cc1nn(CC23CC(CO2)C3)c(C(=O)Nc2ccc(F)c(C(N)=O)c2)c1C(F)(F)F [Example 39, 1-((2-oxabicyclo[2.1.1]hexan-1-yl)methyl)-N-(3-carbamoyl-4-fluorophenyl)-3-methyl-4-(trifluoromethyl)-1H-pyrazole-5-carboxamide] | 100 to 1000 nM
CC12CC(Cn3ncc(C(F)(F)F)c3C(=O)Nc3cccc(S(N)(=O)=O)c3)(CO1)C2 [Example 31, 1-((1-methyl-2-oxabicyclo[2.1.1]hexan-4-yl)methyl)-N-(3-sulfamoylphenyl)-4-(trifluoromethyl)-1H-pyrazole-5-carboxamide] | 1000 to 10000 nM
NC(=O)c1cc(NC(=O)c2c(C(F)(F)F)cnn2CC23CC(C2)C3)ccc1F [Example 38, 1-(bicyclo[1.1.1]pentan-1-ylmethyl)-N-(3-carbamoyl-4-fluorophenyl)-4-(trifluoromethyl)-1H-pyrazole-5-carboxamide] | 1000 to 10000 nM
CC12COC(Cn3nc(C4CC4)c(C(F)(F)F)c3C(=O)Nc3ccnc(S(C)(=O)=O)c3)(C1)C2 [Example 19, 3-cyclopropyl-1-((4-methyl-2-oxabicyclo[2.1.1]hexan-1-yl)methyl)-N-(2-(methylsulfonyl)pyridin-4-yl)-4-(trifluoromethyl)-1H-pyrazole-5-carboxamide] | 100 to 1000 nM
Cc1c(C(F)(F)F)nn(CC23CC(C(F)(F)F)(C2)C3)c1C(=O)Nc1ccnc(C(N)=O)c1 [Example 8, 4-(4-methyl-3-(trifluoromethyl)-1-((3-(trifluoromethyl)bicyclo [1.1.1]pentan-1-yl)methyl)-1H-pyrazole-5-carboxamido)picolinamide] | ≤ 100 nM
NS(=O)(=O)c1cccc(NC(=O)c2c(C(F)(F)F)cnn2CC2CC3(CC3)C2)c1 [Example 34, 1-(spiro[2.3]hexan-5-ylmethyl)-N-(3-sulfamoylphenyl)-4-(trifluoromethyl)-1H-pyrazole-5-carboxamide] | 100 to 1000 nM
NC(=O)c1cc(NC(=O)c2c(C(F)(F)F)c(C3CC3)nn2CC23CC(CO2)C3)ccn1 [Example 3] | 100 to 1000 nM
Cc1c(C(C)(F)F)nn(CC23CC(C(F)(F)F)(C2)C3)c1C(=O)Nc1ccnc(S(C)(=O)=O)c1 [Example 25, 3-(1,1-difluoroethyl)-4-methyl-N-(2-(methylsulfonyl)pyridin-4-yl)-1-((3-(trifluoromethyl)bicyclo[1.1.1]pentan-1yl)methyl)-1H-pyrazole-5-carboxamide] | ≤ 100 nM
NS(=O)(=O)c1cccc(NC(=O)c2c(C(F)(F)F)cnn2CC23CC(CO2)C3)c1 [Example 30, 1-((2-oxabicyclo[2.1.1]hexan-1-yl)methyl)-N-(3-sulfamoylphenyl)-4-(trifluoromethyl)-1H-pyrazole-5-carboxamide] | 1000 to 10000 nM
CS(=O)(=O)n1cc(NC(=O)c2c(C(F)(F)F)cnn2CC2CC3(CC3)C2)cn1 [Example 48, N-(1-(methylsulfonyl)-1H-pyrazol-4-yl)-1-(spiro[2.3]hexan-5-ylmethyl)-4-(trifluoromethyl)-1H-pyrazole-5-carboxamide] | 1000 to 10000 nM
NS(=O)(=O)c1cccc(NC(=O)c2c(C(F)(F)F)cnn2CC23CC(C2)C3)c1 [Example 32, 1-(bicyclo [1.1.1]pentan-1-ylmethyl)-N-(3-sulfamoylphenyl)-4-(trifluoromethyl)-1H-pyrazole-5-carboxamide] | 100 to 1000 nM
Cc1c(C(C)(F)F)nn(CC23CC(F)(C2)C3)c1C(=O)Nc1ccnc(C(N)=O)c1 [Example 2, 4-(3-(1,1-difluoroethyl)-1-((3-fluorobicyclo [1.1.1]pentan-1-yl)methyl)-4-methyl-1H-pyrazole-5-carboxamido)picolinamide] | 100 to 1000 nM
Cc1c(C(F)(F)F)nn(CC23CC(C(F)(F)F)(C2)C3)c1C(=O)Nc1ccnc(S(C)(=O)=O)c1 [Example 27, 4-methyl-N-(2-(methylsulfonyl)pyridin-4-yl)-3-(trifluoromethyl)-1-((3-(trifluoromethyl)bicyclo[1.1.1]pentan-1yl)methyl)-1H-pyrazole-5-carboxamide] | 100 to 1000 nM
NC(=O)c1cc(NC(=O)c2c(C(F)(F)F)cnn2CC2CC3(CC3)C2)ccc1F [Example 41, N-(3-carbamoyl-4-fluorophenyl)-1-(spiro[2.3]hexan-5-ylmethyl)-4-(trifluoromethyl)-1H-pyrazole-5-carboxamide] | 100 to 1000 nM
CS(=O)(=O)n1cc(NC(=O)c2c(C(F)(F)F)cnn2CC23CC(C2)C3)cn1 [Example 47, 1-(bicyclo [1.1.1]pentan-1-ylmethyl)-N-(1-(methylsulfonyl)-1H-pyrazol-4-yl)-4-(trifluoromethyl)-1H-pyrazole-5-carboxamide] | 1000 to 10000 nM

The next lines start with the values.

IC50 | SMILES
≤ 100 nM | Cc1c(C(C)(F)F)nn(CC2(C)CC(F)(F)CC2C)c1C(=O)Nc1ccnc(C(N)=O)c1 (single isomer, unassigned) [Example 10a, 4-(1-((4,4-difluoro-1,2-dimethylcyclopentyl)methyl)-3-(1,1-difluoroethyl)-4-methyl-1H-pyrazole-5-carboxamido)picolinamide]
≤ 100 nM | Cc1c(C(C)(F)F)nn(CC2(C)CC(F)(F)CC2C)c1C(=O)Nc1ccnc(C(N)=O)c1 (single isomer, unassigned) [Example 10c, 4-(1-((4,4-difluoro-1,2-dimethylcyclopentyl)methyl)-3-(1,1-difluoroethyl)-4-methyl-1H-pyrazole-5-carboxamido)picolinamide]
100 to 1000 nM | CC1(C)CC(Cn2nc(C3CC3)c(C(F)(F)F)c2C(=O)Nc2ccnc(C(N)=O)c2)O1 (single isomer, unassigned) [Example 17a, 4-(3-cyclopropyl-1-((4,4-dimethyloxetan-2-yl)methyl)-4-(trifluoromethyl)-1H-pyrazole-5-carboxamido)picolinamide]
≤ 100 nM | Cc1c(C(C)(F)F)nn(CC2(C)CC(F)(F)CC2C)c1C(=O)Nc1ccnc(S(N)(=O)=O)c1 (single isomer, unassigned) [Example 43c, 1-((4,4-difluoro-1,2-dimethylcyclopentyl)methyl)-3-(1,1-difluoroethyl)-4-methyl-N-(2-sulfamoylpyridin-4-yl)-1H-pyrazole-5-carboxamide]
≤ 100 nM | Cc1c(C(C)(F)F)nn(CC2(C)CC(F)(F)CC2C)c1C(=O)Nc1ccnc(C(N)=O)c1 (single isomer, unassigned) [Example 10b, 4-(1-((4,4-difluoro-1,2-dimethylcyclopentyl)methyl)-3-(1,1-difluoroethyl)-4-methyl-1H-pyrazole-5-carboxamido)picolinamide]
≤ 100 nM | Cc1c(C(C)(F)F)nn(CC2(C)CC(F)(F)CC2C)c1C(=O)Nc1ccnc(S(N)(=O)=O)c1 (single isomer, unassigned) [Example 43d, 1-((4,4-difluoro-1,2-dimethylcyclopentyl)methyl)-3-(1,1-difluoroethyl)-4-methyl-N-(2-sulfamoylpyridin-4-yl)-1H-pyrazole-5-carboxamide]
